≈ marks a conversion by molar mass, not a printed value. Where “and” joins values, the source holds several entries; their conditions need not be identical. Equal entries are not always repeated. Where two headings read alike, the source gives them in different places.
Key:
[1] = molecular target: human, intestinal P-gp- transporters (Homo sapiens, UniProt P08183); test: P-gp- transporter test (calcein AM, MATU cells); conditions: ratio of fluorescence intensity test solution to blank
Source text: In this test, the activity to inhibit the transporters is characterized via ratio (R) that indicates the ratio of the fluorescence intensity of the test solution to the fluorescence intensity of the blank and is directly proportional to inhibiting the P-gp- transporters. Fluorescence intensity test solution corresponds to fluorescence intensity, measured at 485/535 nm (excitation or emission), of cells that contain test solution and calcein AM working solution.
For this purpose, a suspension of human breast cancer cell lines, MATU-cell lines (Max-Dellbrück-Centrum (MDC)-Berlin-Buch; 40,000 cells/well/200 μl) is first added to a microtiter plate (Greiner black 96 plates, clear bottom, sterile). […]
Then, the addition of calcein AM working solution (20 μl/well) to all wells is carried out, i.e., with and without test solution. […] After incubation is completed, the fluorescence is measured in a plate-fluorescence reader (Fluostar®, B&L Systems, Maarssen) at 485/535 nm (excitation or emission).
The following ratio: ratio (R) of the fluorescence intensity of the test solution to the fluorescence intensity of the blank is determined.
The fluorescence intensity of the test solution corresponds to the fluorescence intensity, measured at 485/535 nm (excitation or emission), of the cells that contain the test solution and the calcein AM working solution.

17β-HSD2 = molecular target: T1, 17β-HSD2 (Homo sapiens, UniProt P37059); test: Metabolic stability, in vitro 17β-HSD2 test on intestinal microsomes; format: in vitro ADME; conditions: % of starting value of AE2, n=2
T1 construct: Intestinal microsomes (InVitro Technologies); protein content: 24 mg/ml; tissue InVitro Technologies; host or cells: intestinal microsomes
T1 sequence (P37059 1-387): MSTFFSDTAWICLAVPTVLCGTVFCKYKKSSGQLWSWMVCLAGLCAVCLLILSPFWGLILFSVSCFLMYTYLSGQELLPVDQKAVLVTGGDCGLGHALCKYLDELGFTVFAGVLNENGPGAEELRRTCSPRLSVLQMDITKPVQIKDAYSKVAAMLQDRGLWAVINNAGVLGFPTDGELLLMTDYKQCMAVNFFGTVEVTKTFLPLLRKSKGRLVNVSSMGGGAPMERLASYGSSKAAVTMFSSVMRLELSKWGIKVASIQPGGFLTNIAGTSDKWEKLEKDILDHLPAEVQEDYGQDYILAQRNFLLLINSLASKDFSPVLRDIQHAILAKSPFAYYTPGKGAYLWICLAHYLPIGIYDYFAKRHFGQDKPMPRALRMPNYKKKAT
Source text: Pharmaceutical preparations according to the invention that contain steroids that have a secondary, beta-position hydroxyl group in 17-position of the sterane skeleton inhibit the 17β-HSD 2, so that less 17-keto-biotransformation product is produced. The inhibition potential is directly proportional to the mass proportion of the formulation according to the invention. […] Example 5; FIG. 3). It can be seen from this that formulations according to the invention are suitable to inhibit 17β-HSD 2.
17β-HSD2 test on microsomes of intestinal origin. Metabolic stability of 0.3 μM of AE2 in an intestinal microsome suspension and production of 17-ketone metabolites after 30 minutes based on the concentration (m/v) of a formulation according to the invention that contains Cremophor®EL and Transcutol®P, Smix 9:1, 20% (m/m), Miglyol®812.
A formulation according to the invention, produced analogously to Example 1a) and containing Cremophor®EL and Transcutol®P, Smix 9:1, 20% (m/m) Miglyol®812, is tested for its property to inhibit 17β-HSD2 in intestinal microsomes. 17β-HSD2 mediates the intestinal enzymatic dehydrogenation of an OH group in 17-position of the sterane skeleton to form a ketone group. An inhibition of the 17β-HSD2 is measured via a test substance AE2, which is the substrate of this enzyme, and is biotransformed into a 17-keto product. The ratio of the AE2 concentration and the 17-ketone-biotransformation product is determined at specific times (0, 10, 20, 30, 45 and 60 minutes) in each case for the starting-AE2 concentration in % (m/m).
For these tests, the following materials are used:
Na-Phosphate buffer: 100 mmol of Na2HPO4×2H2O and 100 mmol of NaH2PO4×H2O
Test substance solution of AE2: AE2 50 μmol in MeOH (in the test batch 0.3 μmol)
Formulation batches of the above-mentioned formulation according to the invention (% m/v): 0%, 0.00441%, 0.0147%, 0.0441%, 0.147% and 0.441% formulation in Na-phosphate buffer (in the test batch 0%, 0.003%, 0.01%, 0.03%, […] and 0.3% formulation).
Cofactor solution: 2 ml of glucose-6-phosphate (160 mmol)/MgCl2 (80 mmol)-mixture is added to 400 μl of a glucose-6-phosphate-dehydrogenase solution, then 15.6 mg of NADP and 13.4 mg of NAD are added.
Microsome solution: Intestinal microsomes (InVitro Technologies; protein content: 24 mg/ml; CYP450 content; 0.058 nmol/mg of protein) Thawed in a water bath at 37° C. (˜60 seconds) and diluted to a concentration of 5 mg/ml of protein with Na-phosphate buffer.
In each case, 170 μl/well of the formulation buffer and 5 μl/well of test substance solution of AE2 are introduced into the corresponding wells, whereby double values are set for each measuring time (0, 10, 20, 30, 45 and 60 minutes).
In each case, 250 μl of ice-cold MeOH is added at the 0-minute values. Immediately after, 25 μl of microsome solution and 50 μl of cofactor solution are added to all wells. The samples of the 0-minute values are stored without incubation at ˜−20° C. for about 24 hours. The other samples are incubated in each case for 10, 20, 30, 45 and 60 minutes at 37° C., and the dehydrogenation reaction is stopped after these times by the addition of 250 μl of ice-cold MeOH in each case. The samples are stored for about 24 hours before they are measured by HPLC at ˜−20° C. and they are centrifuged before HPLC analysis at 3000 rpm, whereby the supernatant is measured.

Lipophilicity (log P) = format: physicochemical
[2] = molecular target: T2, Recombinant, Human Cytochrome P450 2C19 Isoenzyme (Homo sapiens, UniProt P33261); test: Cytochrome P450 inhibition test, in vitro CYP test (2C19); format: biochemical
T2 construct: purchased Gentest Corp., Woburn, Mass., USA
T2 sequence (P33261 whole entry): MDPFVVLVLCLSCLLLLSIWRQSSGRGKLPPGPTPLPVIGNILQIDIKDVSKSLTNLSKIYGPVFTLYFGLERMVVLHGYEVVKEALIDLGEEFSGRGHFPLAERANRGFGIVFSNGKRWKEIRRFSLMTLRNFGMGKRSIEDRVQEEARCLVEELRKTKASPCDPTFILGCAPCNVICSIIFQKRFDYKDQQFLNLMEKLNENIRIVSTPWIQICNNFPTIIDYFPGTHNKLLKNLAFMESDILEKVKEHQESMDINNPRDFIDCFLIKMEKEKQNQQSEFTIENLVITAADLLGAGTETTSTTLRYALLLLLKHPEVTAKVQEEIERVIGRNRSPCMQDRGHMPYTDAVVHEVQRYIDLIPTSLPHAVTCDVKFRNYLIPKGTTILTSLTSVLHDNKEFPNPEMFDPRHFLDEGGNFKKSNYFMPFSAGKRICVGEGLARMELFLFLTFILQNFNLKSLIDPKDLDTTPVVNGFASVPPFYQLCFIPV
Description: (§1) In this connection, the inhibition of the enzymes is characterized via the concentration (IC50, μg/ml) of the adjuvants, in which 50% of the respective isoenzymes are inhibited.
(§2) Stock solutions of the respective test substances or test formulations are produced in acetonitrile and diluted with incubation buffer (3 mg/ml in 2% acetonitrile in the batch); additional concentrations are produced by serial dilution. Concentration of the acetonitrile is at most 2% in all batches.
The incubations are set in 96-hole plate format with 200 μl of total volume in double values. The background batch controls the fluorescence of the batch without enzymes and formulations according to the invention, and the inherent fluorescence of the substances is determined in the buffer dilution. The preparation of the dilutions and the pipetting diagram corresponds to the original instructions of the manufacturer of the test kit (Gentest Corp., Woburn, Mass., USA).
(§3) The batches are started by adding the enzyme/substrate mixture, shaken for 30 or 45 minutes in an incubator at 37° C. and then interrupted with 50 μl of stop solution. The plates are briefly shaken, and the fluorescence intensity is measured in the plate-fluorescence reader at the wavelengths for excitation or emission.
(§4) The development of the fluorescent product forms the basis for the calculation. […] The IC50 value is calculated from the concentration-dependent inhibition.

[3] = molecular target: T3, Recombinant, Human Cytochrome P450 2C9 Isoenzyme (Homo sapiens, UniProt P11712)
T3 sequence (P11712 whole entry): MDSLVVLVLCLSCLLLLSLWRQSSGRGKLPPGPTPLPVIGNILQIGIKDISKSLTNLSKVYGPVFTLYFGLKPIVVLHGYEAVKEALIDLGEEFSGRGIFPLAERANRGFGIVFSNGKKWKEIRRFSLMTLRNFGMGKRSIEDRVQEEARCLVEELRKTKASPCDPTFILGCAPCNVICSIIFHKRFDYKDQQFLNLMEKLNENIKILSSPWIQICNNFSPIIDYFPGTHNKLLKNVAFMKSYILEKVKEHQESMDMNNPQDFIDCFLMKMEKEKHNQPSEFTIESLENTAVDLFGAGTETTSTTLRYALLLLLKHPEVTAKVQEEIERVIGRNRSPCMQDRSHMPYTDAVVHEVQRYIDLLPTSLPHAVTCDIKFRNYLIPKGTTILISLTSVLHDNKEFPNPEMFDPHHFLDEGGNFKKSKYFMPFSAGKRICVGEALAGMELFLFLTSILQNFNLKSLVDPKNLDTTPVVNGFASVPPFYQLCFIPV
Description: as §1, §2
(§5) The incubations are set in 96-hole plate format with 200 μl of total volume in double values. The background batch controls the fluorescence of the batch without enzymes and formulations according to the invention, and the inherent fluorescence of the substances is determined in the buffer dilution. […]
as §3, §4

[4] = molecular target: T4, Recombinant, Human Cytochrome P450 3A4 Isoenzyme (Homo sapiens, UniProt P08684)
T4 sequence (P08684 whole entry): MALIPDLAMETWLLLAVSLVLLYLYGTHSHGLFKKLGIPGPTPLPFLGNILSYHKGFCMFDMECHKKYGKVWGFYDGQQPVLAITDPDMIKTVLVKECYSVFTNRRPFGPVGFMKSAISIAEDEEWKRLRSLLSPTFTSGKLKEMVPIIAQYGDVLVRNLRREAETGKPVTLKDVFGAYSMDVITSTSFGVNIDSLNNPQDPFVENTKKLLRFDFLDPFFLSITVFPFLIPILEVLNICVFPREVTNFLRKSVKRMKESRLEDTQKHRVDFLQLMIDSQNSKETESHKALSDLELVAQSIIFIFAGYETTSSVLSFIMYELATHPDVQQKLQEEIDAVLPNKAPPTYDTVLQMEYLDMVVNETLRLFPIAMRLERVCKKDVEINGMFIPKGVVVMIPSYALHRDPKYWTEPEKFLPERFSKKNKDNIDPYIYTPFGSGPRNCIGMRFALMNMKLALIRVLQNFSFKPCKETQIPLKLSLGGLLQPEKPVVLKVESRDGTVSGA
Description: as §1, §2, §5, §3, §4

[5] = molecular target: T3, Recombinant, Human Cytochrome P450 2C9 Isoenzyme; test: Cytochrome P450 inhibition test, in vitro CYP test (2C9); conditions: substrate 7-MFC, 45 minutes, 37° C.
Description: as §1, §2, §5, §3, §4

[6] = molecular target: T4, Recombinant, Human Cytochrome P450 3A4 Isoenzyme; test: Cytochrome P450 inhibition test, in vitro CYP test (3A4); conditions: substrate 7-BFC, 30 minutes, 37° C.
Description: as §1, §2, §5, §3, §4

Chain of human, intestinal P-gp- transporters (P08183 whole entry): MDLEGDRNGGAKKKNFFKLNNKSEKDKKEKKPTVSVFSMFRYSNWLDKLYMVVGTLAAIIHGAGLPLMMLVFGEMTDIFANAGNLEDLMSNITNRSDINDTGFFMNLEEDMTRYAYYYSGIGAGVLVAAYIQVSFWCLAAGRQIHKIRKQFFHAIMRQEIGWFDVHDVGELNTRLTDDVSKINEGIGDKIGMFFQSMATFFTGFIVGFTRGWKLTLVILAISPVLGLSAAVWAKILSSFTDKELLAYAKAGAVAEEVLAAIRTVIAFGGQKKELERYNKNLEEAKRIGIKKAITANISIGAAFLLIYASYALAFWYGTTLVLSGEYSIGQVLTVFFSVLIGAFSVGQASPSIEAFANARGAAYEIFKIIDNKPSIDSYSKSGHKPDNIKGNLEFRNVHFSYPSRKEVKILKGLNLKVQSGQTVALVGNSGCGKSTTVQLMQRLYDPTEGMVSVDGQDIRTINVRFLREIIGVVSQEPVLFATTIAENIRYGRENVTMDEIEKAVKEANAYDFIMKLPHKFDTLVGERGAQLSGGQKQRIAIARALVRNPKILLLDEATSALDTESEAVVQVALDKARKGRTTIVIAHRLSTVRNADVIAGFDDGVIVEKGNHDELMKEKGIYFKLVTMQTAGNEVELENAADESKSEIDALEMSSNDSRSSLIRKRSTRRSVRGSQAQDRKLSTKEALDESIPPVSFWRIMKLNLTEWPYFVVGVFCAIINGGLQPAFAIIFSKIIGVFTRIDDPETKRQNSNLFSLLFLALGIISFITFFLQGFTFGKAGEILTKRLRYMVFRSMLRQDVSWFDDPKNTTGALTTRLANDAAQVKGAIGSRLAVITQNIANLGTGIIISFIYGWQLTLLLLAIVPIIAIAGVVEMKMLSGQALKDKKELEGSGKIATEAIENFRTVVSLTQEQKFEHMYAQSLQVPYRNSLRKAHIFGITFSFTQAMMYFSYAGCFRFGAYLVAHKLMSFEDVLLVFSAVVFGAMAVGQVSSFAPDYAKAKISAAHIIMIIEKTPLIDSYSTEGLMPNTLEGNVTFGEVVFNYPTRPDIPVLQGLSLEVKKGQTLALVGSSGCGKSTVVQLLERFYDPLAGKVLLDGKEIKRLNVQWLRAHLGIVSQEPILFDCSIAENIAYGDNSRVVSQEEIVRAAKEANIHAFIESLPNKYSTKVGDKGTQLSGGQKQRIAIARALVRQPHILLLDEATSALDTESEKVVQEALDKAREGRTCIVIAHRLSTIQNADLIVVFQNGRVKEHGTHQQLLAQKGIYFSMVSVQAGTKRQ

CN(CCCCC[C@@H]1Cc2cc(O)ccc2[C@@H]2[C@@H]1[C@@H]1CC[C@H](O)[C@@]1(C)C[C@@H]2F)CCCSCCCC(F)(F)C(F)(F)F [AE1, 11β-fluoro-7α-{5-[N-methyl-N-3-(4,4,5,5,5-pentafluoropentylthio)-propylamino]-pentyl}-estra-1,3,5(10)-triene-3,17β-diol]
R ([1]; P-gp substrate): 2.43

CN(CCCCCCC(F)(F)C(F)(F)C(F)(F)C(F)(F)F)CCCCC[C@@H]1Cc2cc(O)ccc2[C@@H]2[C@@H]1[C@@H]1CC[C@H](O)[C@@]1(C)C[C@@H]2F [AE2, 11β-fluoro-7α-{5-[methyl-(7,7,8,8,9,9,10,10,10-nonafluorodecyl)amino]pentyl}estra-1,3,5(10)-triene-3,17β-diol]
amount of genuine AE2 after 30 minutes in the microsome suspension (17β-HSD2; 0.0% Cremophor EL/Miglyol 812/Transcutol P (72T/20T/8T) in test batch): 64% and 66%
amount of genuine AE2 after 30 minutes in the microsome suspension (17β-HSD2; 0.003% Cremophor EL/Miglyol 812/Transcutol P (72T/20T/8T) in test batch): 70% and 71%
amount of genuine AE2 after 30 minutes in the microsome suspension (17β-HSD2; 0.01% Cremophor EL/Miglyol 812/Transcutol P (72T/20T/8T) in test batch): 75% and 76%
amount of genuine AE2 after 30 minutes in the microsome suspension (17β-HSD2; 0.03% Cremophor EL/Miglyol 812/Transcutol P (72T/20T/8T) in test batch): 89% and 83%
amount of genuine AE2 after 30 minutes in the microsome suspension (17β-HSD2; 0.1% Cremophor EL/Miglyol 812/Transcutol P (72T/20T/8T) in test batch): 109% and 114%
amount of genuine AE2 after 30 minutes in the microsome suspension (17β-HSD2; 0.3% Cremophor EL/Miglyol 812/Transcutol P (72T/20T/8T) in test batch): 106% and 109%
logP (Lipophilicity (log P)): 5.9

CCCCCCCC/C=C\CCCCCCCC(=O)OCC [Ethyl oleate, Ethyl oleate (EO)]
IC50 CYP-2C19 [2]: 325 µg/mL (≈ 1.05 mM)
IC50 CYP-2C9 [3]: 195 µg/mL (≈ 0.628 mM)
IC50 CYP-3A4 [4]: 117 µg/mL (≈ 0.377 mM)

CCOCCOCCO [Transcutol ® P, Ethoxydiglycol]
IC50 CYP-2C19 [2]: 1400 µg/mL (≈ 10.4 mM)
Maximum R-Value ([1]; calcein AM, 485/535 nm, MATU cells, test solutions 0.3 to 33.3 μmol): 1.18
IC50 CYP-2C9 [5]: 1500 µg/mL (≈ 11.2 mM)
IC50 CYP-3A4 [6]: 755 µg/mL (≈ 5.63 mM)

C8-C12 triglycerides (MCT) [Miglyol ® 812]
IC50 CYP-2C19 [2]: 100 µg/mL

PEG-40-hydrogenated castor oil [Cremophor ® RH40]
IC50 CYP-2C19 [2]: 11 µg/mL

PEG-400-monoricinoleate [Estax ® 54]
IC50 CYP-2C19 [2]: 0.7 µg/mL

Polyethylene glycol-35-castor oil [Cremophor ® EL]
IC50 CYP-2C19 [2]: 10 µg/mL

Polysorbate 80 [Tween ® 80]
IC50 CYP-2C19 [2]: 8.4 µg/mL

Refined castor oil (RIZ)
IC50 CYP-2C19 [2]: >3000 µg/mL

Source: patent US20040223983A1, “Pharmaceutical preparations, use of these preparations and process for increasing the biovailability of pharmaceutical substances to be administered perorally” (priority 2002, published 2004)
